Measured values as given in patent US20230271941A1, “COMPOUNDS AND COMPOSITIONS FOR TREATING CONDITIONS ASSOCIATED WITH STING ACTIVITY” (IFM Due, Inc., priority 2020, published 2023).

target: T1, hSTING (Homo sapiens, UniProt Q86WV6, G230A/H232R/R293Q/R71H); assay: STING reporter assay: THP1-Dual KO-IFNAR2 cells stimulated with 2′3′cGAMP, luciferase reporter activity; assay type: cell-based; conditions: 15 μM 2′3′cGAMP transfected with Lipofectamine 2000, 24 h, luciferase reporter (QUANTI-Luc)
T1 construct: host or cells: THP1-Dual KO-IFNAR2 cells
T1 sequence (Q86WV6 whole entry R71H/G230A/H232R/R293Q): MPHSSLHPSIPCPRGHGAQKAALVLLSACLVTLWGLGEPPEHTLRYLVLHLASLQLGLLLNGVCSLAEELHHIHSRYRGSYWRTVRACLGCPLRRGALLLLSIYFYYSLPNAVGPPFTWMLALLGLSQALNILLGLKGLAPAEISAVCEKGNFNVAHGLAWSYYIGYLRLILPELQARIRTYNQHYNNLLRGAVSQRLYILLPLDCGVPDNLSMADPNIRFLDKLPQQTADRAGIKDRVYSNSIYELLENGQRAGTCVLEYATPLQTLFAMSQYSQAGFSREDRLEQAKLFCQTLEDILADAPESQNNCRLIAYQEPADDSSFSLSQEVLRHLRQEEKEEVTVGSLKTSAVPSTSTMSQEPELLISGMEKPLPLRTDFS
Description: STING pathway activation by the compounds described herein was measured using THP1-Dual™ cells (KO-IFNAR2).
THP1-Dual™ KO-IFNAR2 Cells (obtained from invivogen) were maintained in RPMI, 10% FCS, 5 ml P/S, 2 mM L-glut, 10 mM Hepes, and 1 mM sodium pyruvate. Compounds were spotted in empty 384 well tissue culture plates (Greiner 781182) by Echo for a final concentration of 0.0017-100 μM. Cells were plated into the TC plates at 40 μL per well, 2×10E6 cells/mL. For activation with STING ligand, 2′3′cGAMP (MW 718.38, obtained from Invivogen), was prepared in Optimem media.
The following solutions were prepared for each 1×384 plate: • Solution A: 2 mL Optimem with one of the following stimuli: • 60 μL of 10 mM 2′3′cGAMP→150 μM stock • Solution B: 2 mL Optimem with 60 μL Lipofectamine 2000→Incubate 5 min at RT
2 mL of solution A and 2 ml Solution B was mixed and incubated for 20 min at room temperature (RT). 20 μL of transfection solution (A+B) was added on top of the plated cells, with a final 2′3′cGAMP concentration of 15 μM. The plates were then centrifuged immediately at 340 g for 1 minute, after which they were incubated at 37° C., 5% CO2, >98% humidity for 24 h. Luciferase reporter activity was then measured. EC50 values were calculated by using standard methods known in the art.
Luciferase reporter assay: 10 μL of supernatant from the assay was transferred to white 384-plate with flat bottom and squared wells. One pouch of QUANTI-Luc™ Plus was dissolved in 25 mL of water. 100 μL of QLC Stabilizer per 25 mL of QUANTI-Luc™Plus solution was added. 50 μL of QUANTI-Luc™ Plus/QLC solution per well was then added. Luminescence was measured on a Platereader (e.g., Spectramax I3X (Molecular Devices GF3637001)).
Luciferase reporter activity was then measured. EC50 values were calculated by using standard methods known in the art.

SMILES	EC50 [nM]
Cn1nc(C(=O)Nc2c[nH]c3cc(F)c(F)cc23)cc1Cc1ccc(C(F)(F)F)cc1 [Compound 113, N-(5,6-difluoro-1H-indol-3-yl)-1-methyl-5-(4-(trifluoromethyl)benzyl)-1H-pyrazole-3-carboxamide]	200 to 1000
Cc1cc(C(=O)Nc2c[nH]c3cc(F)c(F)cc23)nn1Cc1ccc(C(F)(F)F)cc1 [Compound 114, N-(5,6-difluoro-1H-indol-3-yl)-5-methyl-1-(4-(trifluoromethyl)benzyl)-1H-pyrazole-3-carboxamide]	200 to 1000
COc1ccc2[nH]cc(NC(=O)c3ccn(Cc4ccc(C(F)(F)F)cc4)n3)c2n1 [Compound 134, N-(5-methoxy-1H-pyrrolo[3,2-b]pyridin-3-yl)-1-(4-(trifluoromethyl)benzyl)-1H-pyrazole-3-carboxamide]	1000 to 5000
O=C(Nc1c[nH]c2c(F)cncc12)c1cnn(Cc2ccc(C(F)(F)F)cc2)c1 [Compound 128, N-(7-fluoro-1H-pyrrolo[3,2-c]pyridin-3-yl)-1-(4-(trifluoromethyl)benzyl)-1H-pyrazole-4-carboxamide]	200 to 1000
O=C(Nc1c[nH]c2ccc(Cl)cc12)c1cn(-c2cnc(OCC(F)(F)F)c(F)c2)nn1 [Compound 159, N-(5-chloro-1H-indol-3-yl)-1-(5-fluoro-6-(2,2,2-trifluoroethoxy)pyridin-3-yl)-1H-1,2,3-triazole-4-carboxamide]	200 to 1000
O=C(Nc1c[nH]c2cc(F)c(F)cc12)c1cnn(C2CCCCC2)c1 [Compound 116, 1-cyclohexyl-N-(5,6-difluoro-1H-indol-3-yl)-1H-pyrazole-4-carboxamide]	1000 to 5000
CC(C)n1cc(-c2ccc3[nH]cc(NC(=O)c4cn(-c5ccc(C(F)(F)F)cc5)cn4)c3c2)cn1 [Compound 139, N-(5-(1-isopropyl-1H-pyrazol-4-yl)-1H-indol-3-yl)-1-(4-(trifluoromethyl)phenyl)-1H-imidazole-4-carboxamide]	200 to 1000
O=C(Nc1c[nH]c2cc(Cl)c(F)cc12)c1cnn(Cc2ccc(C(F)(F)F)cc2)c1 [Compound 107, N-(6-chloro-5-fluoro-1H-indol-3-yl)-1-(4-(trifluoromethyl)benzyl)-1H-pyrazole-4-carboxamide]	200 to 1000
COc1cncc2c(NC(=O)c3cnn(Cc4ccc(C(F)(F)F)cc4)c3)c[nH]c12 [Compound 117, N-(7-methoxy-1H-pyrrolo[3,2-c]pyridin-3-yl)-1-(4-(trifluoromethyl)benzyl)-1H-pyrazole-4-carboxamide]	5000 to 100000
